The test system of series [1] is Hepatotoxicity.
The test system of series [2] is Hepatotoxicity. This is another data set of the same source.
Series [3] relates to Hepatotoxicity. This is another data set of the same source.
The test system of series [4] is Hepatotoxicity. The source holds these as a separate data set.
In series [5] the test system is Hepatotoxicity. The source holds these as a separate data set.
Series [6] deals with Hepatotoxicity. The source holds these as a separate data set.
The subject of series [7] is Hepatotoxicity. The source holds these as a separate data set.
Series [8] relates to Hepatotoxicity. This is another data set of the same source.
For series [9], the system named is Hepatotoxicity. The source holds these as a separate data set.
In series [10] the test system is Hepatotoxicity. The source holds these as a separate data set.
Series [11] has as its system Hepatotoxicity. This is another data set of the same source.
Series [12] relates to Hepatotoxicity. The source holds these as a separate data set.
The subject of series [13] is Hepatotoxicity. The source holds these as a separate data set.
For series [14], the system named is Hepatotoxicity. This is another data set of the same source.
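Throughout, for HepSE Combined Scores: combined hepatic side effect score as listed in the training data of the Drug Induced Liver Injury Prediction System (DILIps).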
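Throughout, for HepSE bilirubinemia: bilirubinemia hepatic side effect score drawn from the DILIps training data, a prediction system for drug-induced liver injury; call rule not given here.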
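Throughout, for HepSE cholecystitis: Cholecystitis-related hepatic side effect score drawn from the DILIps (drug-induced liver injury prediction) training data set; call rule not given here.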
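Throughout, for HepSE cholelithiasis: hepatic side effect score for cholelithiasis, drawn from the DILIps training data for predicting drug-induced liver injury; call rule not given here.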
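Throughout, for HepSE cirrhosis: cirrhosis hepatic side effect score taken from the DILIps (drug-induced liver injury prediction) training set; call rule not given here.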
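Throughout, for HepSE elevated liver function tests: hepatic side effect score for raised liver function tests, as recorded in the DILIps training set used for predicting drug-induced liver injury.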
Throughout, for HepSE hepatic failure: call rule not given here.
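Throughout, for HepSE hepatic necrosis: score of hepatic side effects for hepatic necrosis, drawn from the training data of DILIps, a prediction system for drug-induced liver injury; call rule not given here.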
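Throughout, for HepSE hepatitis: Hepatitis-related hepatic side effect score taken from the training data of DILIps, a prediction system for drug-induced liver injury; call rule not given here.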
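Throughout, for HepSE hepatomegaly: hepatic side effect score for hepatomegaly, taken from the training set of the DILIps drug-induced liver injury prediction system; call rule not given here.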
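Throughout, for HepSE jaundice: Jaundice-related hepatic side-effect score drawn from the training data of the DILIps (drug-induced liver injury prediction system); call rule not given here.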
Throughout, for HepSE liver disease: call rule not given here.
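Throughout, for HepSE liver fatty: hepatic side effect score for fatty liver, taken from the DILIps training set for predicting drug-induced liver injury; call rule not given here.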
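Throughout, for HepSE liver function tests abnormal: hepatic side effect score taken from the DILIps (drug-induced liver injury prediction system) training data, here covering abnormal liver function test findings.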

On to `N[C@@H](Cc1c[nH]c2ccccc12)C(=O)O` [TRYPTOPHAN], for which the HepSE_bilirubinemia in series [1] came to 0. Further, in series [2], the HepSE_cholecystitis turned out to be 0. The HepSE_cholelithiasis in series [3] was determined as 0. The compound also gave a HepSE_cirrhosis in series [4] of 0. In addition, the “HepSE_elevated liver function tests” value in series [5] was found to be 0. Further, the HepSE_hepatic failure in series [6] turned out to be 0. The same compound returned a HepSE_hepatic necrosis in [7] of 0. This compound registered a HepSE_hepatitis in series [8] of 0. The compound also yielded a HepSE_hepatomegaly in [9] of 0. Besides, the HepSE_jaundice in [10] is recorded as 0. In series [11], this compound registered a HepSE_liver disease of 0. In [12], this compound came in with a HepSE_liver fatty of 0. Moreover, the “HepSE_liver function tests abnormal” value in [13] was determined as 0. Moreover, the “HepSE_Combined Scores” value in [14] turned out to be 0.

Turning to `Oc1c(Cl)cc(Cl)c(Cl)c1Cc1c(O)c(Cl)cc(Cl)c1Cl` [HEXACHLOROPHENE], the HepSE_bilirubinemia in series [1] is recorded as 0. This compound registered a HepSE_cholecystitis in series [2] of 0. In series [3], this compound registered a HepSE_cholelithiasis of 0. The HepSE_cirrhosis in [4] worked out at 0. Besides, the “HepSE_elevated liver function tests” value in series [5] was 0. In [6], this compound showed a HepSE_hepatic failure of 0. Moreover, the HepSE_hepatic necrosis in series [7] is 0. In addition, in series [8], the HepSE_hepatitis came out at 0. Further, the HepSE_hepatomegaly in series [9] came to 0. The HepSE_jaundice in series [10] is on record as 0. Besides, the HepSE_liver disease in series [11] was determined as 0. This compound also returned a HepSE_liver fatty in series [12] of 0. In [13], the “HepSE_liver function tests abnormal” value is reported as 0. In series [14], the “HepSE_Combined Scores” value is 0.

For `CC(=O)NS(=O)(=O)c1ccc(N)cc1` [SULFACETAMIDE], in [1], the HepSE_bilirubinemia is recorded as 0. In [2], this compound returned a HepSE_cholecystitis of 0. In series [3], this compound gave a HepSE_cholelithiasis of 0. The same compound gave a HepSE_cirrhosis in series [4] of 0. Besides, in series [5], the “HepSE_elevated liver function tests” value was 0. This compound also returned a HepSE_hepatic failure in series [6] of 0. Further, in series [7], the HepSE_hepatic necrosis was 1. The HepSE_hepatitis in series [8] was 0. The same compound returned a HepSE_hepatomegaly in series [9] of 0. In series [10], this compound registered a HepSE_jaundice of 0. The HepSE_liver disease in series [11] came to 0. The compound further showed a HepSE_liver fatty in series [12] of 0. For the same compound, the “HepSE_liver function tests abnormal” value in series [13] is reported as 0. The “HepSE_Combined Scores” value in series [14] stood at 1.

For the compound `COc1cccc2c1C(=O)c1c(O)c3c(c(O)c1C2=O)C[C@@](O)(C(=O)CO)C[C@@H]3O[C@H]1C[C@H](N)[C@H](O)[C@H](C)O1` [DOXORUBICIN], the HepSE_bilirubinemia in [1] was found to be 1. The compound also came in with a HepSE_cholecystitis in series [2] of 0. In addition, the HepSE_cholelithiasis in series [3] is 0. The HepSE_cirrhosis in series [4] is on record as 0. For the same compound, in series [5], the “HepSE_elevated liver function tests” value stood at 0. In addition, the HepSE_hepatic failure in series [6] was found to be 1. This compound returned a HepSE_hepatic necrosis in series [7] of 0. The compound further gave a HepSE_hepatitis in [8] of 1. The HepSE_hepatomegaly in [9] was found to be 0. The compound further gave a HepSE_jaundice in [10] of 1. In [11], the HepSE_liver disease was 0. The compound also came in with a HepSE_liver fatty in [12] of 0. Also, the “HepSE_liver function tests abnormal” value in series [13] worked out at 1. Besides, the “HepSE_Combined Scores” value in series [14] came to 5.

Turning to `Nc1ccn(C[C@@H](CO)OCP(=O)(O)O)c(=O)n1.O.O` [CIDOFOVIR], in series [1], the HepSE_bilirubinemia stood at 0. For the same compound, the HepSE_cholecystitis in series [2] amounted to 0. In [3], this compound displayed a HepSE_cholelithiasis of 0. In addition, the HepSE_cirrhosis in series [4] worked out at 0. For the same compound, in series [5], the “HepSE_elevated liver function tests” value is on record as 0. Besides, in series [6], the HepSE_hepatic failure was found to be 0. Further, in [7], the HepSE_hepatic necrosis was found to be 1. In series [8], this compound gave a HepSE_hepatitis of 1. This compound showed a HepSE_hepatomegaly in series [9] of 1. The HepSE_jaundice in series [10] worked out at 1. The same compound came in with a HepSE_liver disease in series [11] of 0. This compound also registered a HepSE_liver fatty in [12] of 0. In [13], the “HepSE_liver function tests abnormal” value is given as 0. Moreover, the “HepSE_Combined Scores” value in series [14] came out at 4.

`O=C1NC(c2ccccc2)(c2ccccc2)C(=O)N1COP(=O)(O)O` [FOSPHENYTOIN] came in with a HepSE_bilirubinemia in [1] of 0. The compound further came in with a HepSE_cholecystitis in [2] of 0. For the same compound, the HepSE_cholelithiasis in series [3] stood at 0. The compound also showed a HepSE_cirrhosis in [4] of 0. Further, the “HepSE_elevated liver function tests” value in series [5] stood at 0. In [6], this compound had a HepSE_hepatic failure of 0. The compound also gave a HepSE_hepatic necrosis in series [7] of 0. In addition, the HepSE_hepatitis in series [8] was found to be 0. The compound also showed a HepSE_hepatomegaly in [9] of 0. The HepSE_jaundice in series [10] amounted to 0. In series [11], the HepSE_liver disease is recorded as 0. The HepSE_liver fatty in series [12] stood at 0. Further, the “HepSE_liver function tests abnormal” value in [13] came out at 1. For the same compound, in series [14], the “HepSE_Combined Scores” value came out at 1.

As to `Clc1ccc(COC(Cn2ccnc2)c2ccc(Cl)cc2Cl)c(Cl)c1` (stereo not given) [MICONAZOLE], in series [1], the HepSE_bilirubinemia stood at 0. This compound came in with a HepSE_cholecystitis in [2] of 0. In series [3], this compound showed a HepSE_cholelithiasis of 0. Moreover, the HepSE_cirrhosis in [4] was found to be 0. Further, the “HepSE_elevated liver function tests” value in [5] is given as 0. The HepSE_hepatic failure in series [6] was found to be 0. The HepSE_hepatic necrosis in series [7] came out at 0. The compound also registered a HepSE_hepatitis in series [8] of 0. This compound also showed a HepSE_hepatomegaly in series [9] of 0. Further, in series [10], the HepSE_jaundice amounted to 0. Also, the HepSE_liver disease in series [11] came to 0. The compound further displayed a HepSE_liver fatty in [12] of 0. The “HepSE_liver function tests abnormal” value in [13] came out at 0. For the same compound, in [14], the “HepSE_Combined Scores” value is 0.

The compound `Clc1ccc2nsnc2c1NC1=NCCN1` [TIZANIDINE] showed a HepSE_bilirubinemia in [1] (Liver) of 0. For the same compound, the HepSE_cholecystitis in series [2] (Liver) was 0. In series [3] (Liver), the HepSE_cholelithiasis is given as 1. Further, in [4] (Liver), the HepSE_cirrhosis was 1. In [5] (Liver), the “HepSE_elevated liver function tests” value is listed as 0. Also, in series [6] (Liver), the HepSE_hepatic failure is 1. The compound also came in with a HepSE_hepatic necrosis in series [7] (Liver) of 1. The HepSE_hepatitis in [8] (Liver) came to 1. This compound also yielded a HepSE_hepatomegaly in [9] (Liver) of 0. The HepSE_jaundice in [10] (Liver) came out at 1. The HepSE_liver disease in series [11] (Liver) is 1. The HepSE_liver fatty in series [12] (Liver) was found to be 0. The “HepSE_liver function tests abnormal” value in series [13] (Liver) came out at 1. In addition, the “HepSE_Combined Scores” value in series [14] (Liver) turned out to be 8.

As to `Cc1nnc(SCC2=C(C(=O)O)N3C(=O)[C@@H](NC(=O)Cn4cnnn4)[C@H]3SC2)s1` [CEFAZOLIN], the HepSE_bilirubinemia in series [1] was determined as 0. Moreover, the HepSE_cholecystitis in [2] came to 0. Also, the HepSE_cholelithiasis in [3] was found to be 0. In series [4], this compound registered a HepSE_cirrhosis of 0. Moreover, the “HepSE_elevated liver function tests” value in series [5] was 0. In series [6], this compound returned a HepSE_hepatic failure of 0. For the same compound, in series [7], the HepSE_hepatic necrosis came out at 0. The HepSE_hepatitis in series [8] amounted to 1. This compound gave a HepSE_hepatomegaly in series [9] of 0. The HepSE_jaundice in series [10] is 0. Further, in [11], the HepSE_liver disease is recorded as 0. This compound returned a HepSE_liver fatty in [12] of 0. Moreover, in series [13], the “HepSE_liver function tests abnormal” value stood at 0. The “HepSE_Combined Scores” value in series [14] amounted to 1.

Take `C[C@]12C=CC(=O)C=C1CC[C@@H]1[C@@H]2[C@@H](O)C[C@@]2(C)[C@H]1CC[C@]2(O)C(=O)CO` [PREDNISOLONE]: the HepSE_bilirubinemia in series [1] came to 0. This compound also returned a HepSE_cholecystitis in [2] of 0. Further, the HepSE_cholelithiasis in [3] amounted to 0. In series [4], the HepSE_cirrhosis is 0. The “HepSE_elevated liver function tests” value in series [5] is reported as 0. The HepSE_hepatic failure in series [6] was determined as 0. The compound further displayed a HepSE_hepatic necrosis in series [7] of 0. In [8], this compound had a HepSE_hepatitis of 0. Also, the HepSE_hepatomegaly in series [9] was found to be 1. The HepSE_jaundice in series [10] came to 0. The same compound yielded a HepSE_liver disease in [11] of 0. Further, the HepSE_liver fatty in series [12] is reported as 0. For the same compound, the “HepSE_liver function tests abnormal” value in series [13] worked out at 0. Moreover, the “HepSE_Combined Scores” value in series [14] came to 1.

These data come from ChEMBL document CHEMBL1909294, “Translating clinical findings into knowledge in drug safety evaluation--drug induced liver injury prediction system (DILIps)” (PLoS Comput Biol, 2011).
